From patent US11965886B2, “Method of immobilizing a cell on a support using compounds comprising a polyethylene glycol moiety” (Roche Diagnostics Operations, Inc., priority 2013, dated 2024)
Where “and” joins values, the source holds several entries; their conditions need not be identical. Identical values can stand only once. Like-named read-outs stand apart in the source and are kept apart here.

Assays:
WBCs [1] = experiment: Immobilization of cells: recovery rate of cells on SA (streptavidin) plate or untreated plate (Example 3); assay type: cell-based
Protocol: The following applies for modular description of the compounds below: X=hydrophobic moiety, […]=fluorescein In the following experiment, the recovery rate of cells was determined.

white blood cells (WBCs) = system: white blood cells (WBCs)
Protocol: In particular, the performance of a single cholesterol-molecule and different dual-linker molecules (i.e. containing two hydrophobic moieties) was tested. In detail, immobilization of white blood cells (WBCs) on a Streptavidin-coated surface using different linker molecules was tested on a 12-well plate: 300 000 WBCs/well. This was followed by the measurement of the cell recovery rate after immobilization and washing of the cells using the Cellavista instrument (10× Nuclei Operator s9s5).

WBC = WBC recovery rate after centrifugation (cell stabilization, Example 5); assay type: cell-based; conditions: 300×g; for WBC recovery rate after centrifugation at different points of time, dependence on concentration: 0.35 nmol molecule A, 100 nmol and 0.5 nmol molecule B
Protocol: A) WBC Recovery Rate after Centrifugation and Cell Immobilization Using Different Molecules
Centrifugation characteristics: 10 min, 300×g.
B) WBC Recovery Rate after Centrifugation Using Different Compounds—Different Points of Time
Centrifugation characteristics: 10 min, 300×g. A: Choleseryl-TEG-Cholesteryl-TEG-(SpacerC18)7-Fluos-Biotin-TEG.
C) WBC Recovery Rate after Centrifugation—Different Experimenters
Centrifugation characteristics: 10 min, 300×g. Molecule: Cholesteryl-TEG-Cholesteryl-TEG-(SpacerC18)7-Fluos-Biotin-TEG.
D) WBC Recovery Rate after Centrifugation—Different Points of Time and Centrifugation Settings
Centrifugation characteristics: 20 min, 300×g.

WBCs [2] = experiment: Labelling of cells using compounds (staining/uptake); assay type: cell-based
From the text: (§1) 2. Labelling of Cells Using Compounds Useful in Methods of the Invention

Epithelial cells = experiment: as above; assay type: cell-based
From the text: as §1

[3] = Sample 1, first block (concentration not given), 300 000 WBCs/well
[4] = Sample 1, compound concentration: 1 nmol/10e6 WBCs
[5] = Sample 1, compound concentration: 1 nmol/10e6 WBCs, 300 000 WBCs/well
[6] = Sample 2, compound concentration: 100 pmol/10e6 WBCs
[7] = Sample 2, compound concentration: 100 pmol/10e6 WBCs, 300 000 WBCs/well
[8] = Sample 2, compound concentration: 1 nmol/10e6 WBCs
[9] = Sample 2, compound concentration: 1 nmol/10e6 WBCs, 300 000 WBCs/well
[10] = cells treated with compound, streptavidin plate, repeated experiments

CCCCCCCC/C=C\CCCCCCCC(=O)OC[C@H](COP(=O)([O-])OCCNC(=O)CCCCCNC(=O)CCCC[C@@H]1SC[C@@H]2NC(=O)N[C@@H]21)OC(=O)CCCCCCC/C=C\CCCCCCCC.[Na+]
Recovery Rate (WBCs [1]; 10 pmol/10e6 cells): 66.30% and 74.40%
Recovery Rate (WBCs [1]; 500 pmol/10e6 cells): 80.16% and 95.94%
Recovery Rate (WBCs [1]; 1 nmol/10e6 cells): 95.80% and 101.76%
Recovery Rate (WBCs [1]; 10 nmol/10e6 cells): 89.19% and 105.12%

CCCCCCCCCCCCCCCC(=O)OC[C@H](COP(=O)([O-])OCCNC(=O)CCCCCNC(=O)CCCC[C@@H]1SC[C@@H]2NC(=O)N[C@@H]21)OC(=O)CCCCCCCCCCCCCCC.[Na+]
Recovery Rate (WBCs [1]; 10 pmol/10e6 cells): 54.30% and 45.40%
Recovery Rate (WBCs [1]; 100 pmol/10e6 cells): 72.20% and 86.10%
Recovery Rate (WBCs [1]; 300 pmol/10e6 cells): 51.80% and 55.90% and 52.60% and 73.07% and 61.27% and 71.40%
Recovery Rate (WBCs [1]; 1 nmol/10e6 cells): 84.90% and 89.30%

5′-(Cholesterol-TEG)1-Doubler-dT-Biotin-3′ [29.891272]
Recovery Rate (white blood cells (WBCs); [3]): 56.49%
cells counted per well (white blood cells (WBCs); [3]): 147132 and 179643 and 181620
Recovery Rate (white blood cells (WBCs); [4]): 72.13%
cells counted per well (white blood cells (WBCs); [5]): 199973 and 220701 and 228481
Mean (cells counted per well) (white blood cells (WBCs); [6]): 186316.33
Recovery Rate (white blood cells (WBCs); [6]): 62.11%
cells counted per well (white blood cells (WBCs); [7]): 161504 and 201424 and 196021
Mean (cells counted per well) (white blood cells (WBCs); [8]): 247418.33
Recovery Rate (white blood cells (WBCs); [8]): 82.47%
cells counted per well (white blood cells (WBCs); [9]): 241232 and 254894 and 246129
cell immobilization characteristics, mono linker vs dual linker (white blood cells (WBCs); conclusion of Example 4): shows similar cell immobilization characteristics compared dual linker molecules
Recovery Rate (WBCs [1]; 10 pmol/10e6 cells): 65.03%
Recovery Rate (WBCs [1]; 100 pmol/10e6 cells): 83.08% and 56.49% and 62.11% and 82.01%
Recovery Rate (WBCs [1]; 1 nmol/10e6 cells): 87.93% and 72.13% and 82.47%
Recovery Rate (WBCs [1]; 10 nmol/10e6 cells): Cells lysed

5′-(Cholesteryl-TEG)2-PEG2000-Fluos-Biotin_TEG-3′ INVERS [29.891250]
Recovery Rate (WBCs [1]; 100 pmol/10e6 cells): 48.66%
Recovery Rate (WBCs [1]; 1 nmol/10e6 cells): 81.29%

5′-(Cholesteryl-TEG)2-Spacer C12-dT-Biotin_TEG-3′ INVERS [29.891253]
Recovery Rate (white blood cells (WBCs); [3]): 41.44%
cells counted per well (white blood cells (WBCs); [3]): 105061 and 128195 and 139678
Recovery Rate (white blood cells (WBCs); [4]): 72.13%
cells counted per well (white blood cells (WBCs); [5]): 218861 and 221471 and 208802
Mean (cells counted per well) (white blood cells (WBCs); [6]): 187757.67
Recovery Rate (white blood cells (WBCs); [6]): 62.59%
cells counted per well (white blood cells (WBCs); [7]): 178919 and 197130 and 187224
Mean (cells counted per well) (white blood cells (WBCs); [8]): 237052.33
Recovery Rate (white blood cells (WBCs); [8]): 79.02%
cells counted per well (white blood cells (WBCs); [9]): 239105 and 240632 and 231420
Recovery Rate (WBCs [1]; 10 pmol/10e6 cells): 47.42%
Recovery Rate (WBCs [1]; 100 pmol/10e6 cells): 73.46% and 41.44% and 62.59% and 71.41%
Recovery Rate (WBCs [1]; 1 nmol/10e6 cells): 96.84% and 72.13% and 79.02% and 86.21%
Recovery Rate (WBCs [1]; 10 nmol/10e6 cells): 102.36%

5′-CholesterylTEG-CholesterylTEG-(SpacerC18)7-Fluos-BiotinTEG-3′ [29.891222]
WBC recovery rate after centrifugation, different experimenters, dependence on concentration (WBC; Centrifugation: 10 min): the higher the molecule concentration, the higher the cell recovery rate after centrifugation
WBC recovery rate after centrifugation at different points of time, dependence on concentration (WBC; Centrifugation: 10 min): The higher the molecule concentration, the higher the cell recovery rate after centrifugation
cell stabilization, dependence on experimenter (WBC; Experimenters 1, 2 and 3, 10 min): cell stabilization is independent on the experimenter

5′-CholesterylTEG-CholesterylTEG-PEG2000-BiotinTEG-3′ [29.891137]
Recovery Rate (WBCs [1]; WBCs, concentration not given): 77.1%

5′-CholesterylTEG-SpacerC12-CholesterylTEG-(SpacerC18)7-Fluos-BiotinTEG-3 [29.891224]
Recovery Rate (WBCs [1]; WBCs, 350 pmol/10e6 cells): 119.4% and 60.6% and 64.4% and 70.3% and 78.1%

5′-CholesterylTEG-SpacerC18-CholesterylTEG-(SpacerC18)7-Fluos-BiotinTEG-3′ [29.891225]
Recovery Rate (WBCs [1]; WBCs, 350 pmol/10e6 cells): 38.8% and 46.5%

5′-Myristic acid-CholesterylTEG-(SpacerC18)7-Fluos-BiotinTEG-3′ [29.891227]
Recovery Rate (WBCs [1]; WBCs, 350 pmol/10e6 cells): 64.9% and 69.6% and 77.8%

5′-Myristic acid-Myristic acid-(SpacerC18)7-Fluos-BiotinTEG-3′ [29.891214]
Recovery Rate (WBCs [1]; WBCs, 350 pmol/10e6 cells): 78.9% and 68.7% and 90.5% and 81.1% and 65.9% and 84.9% and 85.1%
Recovery rate treated cells (SA-plate) (WBCs [1]; [10]): 78.9%

5′-Myristic acid-Myristic acid-Myristic acid-(SpacerC18)7-Fluos-BiotinTEG-3′ [29.891221]
Recovery Rate (WBCs [1]; WBCs, 350 pmol/10e6 cells): 46.0% and 79.4% and 68.8% and 76.5% and 83.4%

5′-Myristic acid-Myristic acid-PEG2000-Fluos-BiotinTEG-3′ [29.891194]
Recovery Rate (WBCs [1]; WBCs, 350 pmol/10e6 cells): 21-26%

5′-Myristic acid-Myristic acid-SpacerC18-Fluos-BiotinTEG-3′ [29.891213]
Recovery Rate (WBCs [1]; WBCs, 350 pmol/10e6 cells): 67.4% and 61.9% and 80.2% and 70.4%
Recovery rate treated cells (SA-plate) (WBCs [1]; [10]): 67.4%

5′-Myristic acid-SpacerC9-Myristic acid-(SpacerC18)7-Fluos-BiotinTEG-3′ [29.891218]
Recovery Rate (WBCs [1]; WBCs, 350 pmol/10e6 cells): 50.3% and 55.1%

5′-Myristic acid-SpacerC9-Myristic acid-PEG2000-Fluos-BiotinTEG-3′ [29.891197]
staining (WBCs [2]; remark in the Recovery Rate column): not good

5′-Myristic acid-SpacerC12-Myristic acid-(SpacerC18)7-Fluos-BiotinTEG-3 [29.891219]
Recovery Rate (WBCs [1]; WBCs, 350 pmol/10e6 cells): 46.3% and 39.4% and 53.7% and 56.6%

5′-Myristic acid-SpacerC18-Myristic acid-(SpacerC18)7-Fluos-BiotinTEG-3′ [29.891220]
Recovery Rate (WBCs [1]; WBCs, 350 pmol/10e6 cells): 35.8% and 41.4% and 55.9% and 63.5%

CCCCCCCCCCCCCCCCCCCCCCN1/C(=C/C=C/c2oc3ccccc3[n+]2CCC)Oc2ccccc21.[I-] [PKH2]
Labelling (staining/uptake) of cells (Epithelial cells): ✓ not all

Biotin-PEG-Lys-(C14)2 [15.260268]
Recovery Rate (WBCs [1]; 1.77 nmol/10e6 Cells): 85.72
Recovery rate treated cells (SA-plate) (WBCs [1]; 2.16 μg/2 × 10e6 WBCs): 39.6%
Recovery rate treated cells (SA-plate) (WBCs [1]; 21.6 μg/2 × 10e6 WBCs): 46.7%
Recovery rate treated cells (SA-plate) (WBCs [1]; 216 μg/2 × 10e6 WBCs): 51.8%
Recovery Rate (WBCs [1]; WBCs, concentration not given): 52-86%

Biotin-PEG-Lysin-(C18)2 [listing 1 of 2 here]
enables cell immobilization within (WBC; Centrifugation: 10 min): ≤ 3.5 h
WBC recovery rate after centrifugation at different points of time, dependence on concentration (WBC; Centrifugation: 10 min): The higher the molecule concentration, the higher the cell recovery rate after centrifugation

Biotin-PEG-Lysin-(C18)2 [listing 2 of 2 here]
Recovery Rate (WBCs [1]; 10 pmol/10e6 cells): 4.8%
Recovery Rate (WBCs [1]; 100 pmol/10e6 cells): 6.8%
Recovery Rate (WBCs [1]; 1 nmol/10e6 cells): 21.8% and 29.6%
Recovery Rate (WBCs [1]; 10 nmol/10e6 cells): 60.6% and 43.0% and 68.5%
Recovery Rate (WBCs [1]; WBCs, 350 pmol/10e6 cells, 0.00003% Tween22): 15.0%
Recovery Rate (WBCs [1]; WBCs, 350 pmol/10e6 cells, 0.0001% Tween21): 10.0%
Recovery Rate (WBCs [1]; WBCs, 350 pmol/10e6 cells, 0.0003% Tween20): 10.0%
Recovery Rate (WBCs [1]; WBCs, 350 pmol/10e6 cells, 0.001% Tween20): 9.0%
Recovery Rate (WBCs [1]; WBCs, 0.5 nmol/10e6 cells): 25.0% and 27.0% and 38.0%
Recovery Rate (WBCs [1]; WBCs, 50 nmol/10e6 cells): 69.0%

Biotin-PEG-Lysin-(C18)2 [HH1749]
WBC recovery rate after centrifugation, dependence on concentration (WBC; Centrifugation: 10 min): The higher the concentration of the molecule, the higher the cell recovery rate after centrifugation

Biotin-PEG-Lysin-(C18)2 [HH1750]
WBC recovery rate after centrifugation, dependence on concentration (WBC; Centrifugation: 10 min): The higher the concentration of the molecule, the higher the cell recovery rate after centrifugation

Biotin-PEG-Lysin-(C18)2 [HH1755]
WBC recovery rate after centrifugation, dependence on concentration (WBC; Centrifugation: 10 min): The higher the concentration of the molecule, the higher the cell recovery rate after centrifugation

Sulfo-JA133-phenylboronic acid [15.000078]
Labelling (staining/uptake) of cells (Epithelial cells): ✓
Labelling (staining/uptake) of cells (WBCs [2]): ✓ not all
